According to EP4663640A1 (Shanghai Institute of Materia Medica, Chinese Academy of …, priority 2023, dated 2024):
Like-named read-outs stand apart in the source and are kept apart here.

What was measured:
[1] = Preliminary pharmacokinetic evaluation, plasma drug concentration after oral administration to mice; assay type: in vivo, ICR mice; conditions: oral 10 mg/kg, Mean ± SD, N = 3
Description: The test compound was prepared according to the following solvent: an aqueous solution of DMSO/Tween 80/0.5% (m/v) CMC-Na at a ratio of 2:2:96 (v/v/v), with a drug concentration of 1 mg/mL. Then, the test compound was gavaged to mice at a dosage of 10 mL/kg, with a dose of 10 mg/kg. Each compound was administered to 3 mice. At 1h and 4h after administration, about 50 µL of blood was collected from the orbital venous plexus of the mouse and placed in a centrifuge tube containing EDTA-K2 anticoagulant.

mice [2] = experiment: Marble burial test (antianxiety); assay type: in vivo; conditions: oral 1 mg/kg, before versus after administration (Figure 3)
Description: (§1) The drug to be tested was dissolved in DMSO: Tween 80: distilled water at a ratio of 2:2:96 (v/v/v), and then administered to mice by gavage at a volume of 10 mL/kg. […] The blank control group was only given 10 mL/kg of the above solvent.
The mouse marble burial test is a behavioral assay used for the screening of antianxiety drugs. It exploits the natural digging behavior of mice in environments such as burrows or escape tunnels and is sensitive to small changes in behavior caused by genetic manipulation, disease, or drug treatment.
A 5cm thick sawdust litter was laid in a 33 cm×24 cm×28 cm carton, and 4×5 black marbles (4 cm apart) with a total of 20 black marbles of 14mm in diameter were neatly placed on the litter. The mouse was put into the carton facing the corner for 30 minutes. After 30 minutes, the mouse was carefully taken out and the number of marbles buried by the mouse was counted. If more than 2/3 of the marble was buried, it was considered a whole marble. First, a blank experiment was conducted. Before the experiment, the mouse was taken to the experimental environment to adapt. After 1 hour, the experiment began. After the experiment, the mouse was returned to the cage and the number of marbles buried by the mouse was counted. On the second day, the mouse was taken to the experimental environment to adapt for 1 hour before the drug was administered. After the drug administration, the marble burying experiment was conducted for […]. After the experiment, the mouse was carefully taken out and returned to the cage to prevent the mouse from escaping violently and affecting the experimental results. After counting, the black marbles were taken out and wiped with alcohol, and the litter was turned over again to remove the smell of the previous mouse to prevent it from affecting the experiment of the next mouse. The marbles were neatly placed for the experiment of the next mouse.

[3] = Liver microsome stability test, mouse; assay type: in vitro ADME; conditions: Mouse liver microsomes
Excerpt: Calculation of Intrinsic Clearance: Clint = (1000 × slope)/(P); [formula]

mice [4] = experiment: Tail suspension test (antidepression); assay type: in vivo; conditions: oral 1 mg/kg, before versus after administration (Figure 4)
Description: as §1
The mouse tail suspension test (TST) is a widely used experimental method to evaluate the effectiveness of antidepressants and other psychotropic drugs. The principle of the test is to suspend a mouse by its tail and observe its behavior. The mouse will initially struggle to escape, but when it realizes that escape is impossible, it will eventually stop struggling and enter a state of immobility that indicates despair. This immobility behavior is used to measure depression-like states, and the severity of the condition is assessed by recording the duration of immobility.
The same mouse was subjected to the tail suspension test immediately after the marble burying test. A tail suspension test box was built using a black frosted acrylic board, 55 cm high, 15 cm long, and 11.5 cm wide. The three sides and top of the box were frosted blackboards, and one side was used for video recording. The mouse tail was wrapped with yellow tape 2 cm away from the tip of the tail, and the mouse was hung upside down in the middle of the top acrylic board. The tip of the mouse tail was about 3 cm away from the acrylic board, and the body was suspended and could not touch the surrounding board wall. The test time for each mouse lasted for 6 minutes, and the immobility time of the mouse during this time was counted. After the experiment, the mouse was returned to the cage, and the inside of the box and the table were wiped with alcohol to remove the smell of the previous mouse to prevent affecting the next mouse experiment. The criteria for immobility in the tail suspension test: stop struggling, no flexion or twisting of the body, no swinging of the hind limbs, and slight swinging of the forelimbs and head were also counted as immobility time.

hTRPC5 = biological target: T1, hTRPC5 (Homo sapiens, UniProt Q9UL62); experiment: TRPC5 inhibitory activity assay (FLIPR calcium fluorescence, Englerin A stimulation); assay type: cell-based
T1 construct: expressed in transfected cells; host or cells: HEK-293
T1 sequence (Q9UL62 1-973): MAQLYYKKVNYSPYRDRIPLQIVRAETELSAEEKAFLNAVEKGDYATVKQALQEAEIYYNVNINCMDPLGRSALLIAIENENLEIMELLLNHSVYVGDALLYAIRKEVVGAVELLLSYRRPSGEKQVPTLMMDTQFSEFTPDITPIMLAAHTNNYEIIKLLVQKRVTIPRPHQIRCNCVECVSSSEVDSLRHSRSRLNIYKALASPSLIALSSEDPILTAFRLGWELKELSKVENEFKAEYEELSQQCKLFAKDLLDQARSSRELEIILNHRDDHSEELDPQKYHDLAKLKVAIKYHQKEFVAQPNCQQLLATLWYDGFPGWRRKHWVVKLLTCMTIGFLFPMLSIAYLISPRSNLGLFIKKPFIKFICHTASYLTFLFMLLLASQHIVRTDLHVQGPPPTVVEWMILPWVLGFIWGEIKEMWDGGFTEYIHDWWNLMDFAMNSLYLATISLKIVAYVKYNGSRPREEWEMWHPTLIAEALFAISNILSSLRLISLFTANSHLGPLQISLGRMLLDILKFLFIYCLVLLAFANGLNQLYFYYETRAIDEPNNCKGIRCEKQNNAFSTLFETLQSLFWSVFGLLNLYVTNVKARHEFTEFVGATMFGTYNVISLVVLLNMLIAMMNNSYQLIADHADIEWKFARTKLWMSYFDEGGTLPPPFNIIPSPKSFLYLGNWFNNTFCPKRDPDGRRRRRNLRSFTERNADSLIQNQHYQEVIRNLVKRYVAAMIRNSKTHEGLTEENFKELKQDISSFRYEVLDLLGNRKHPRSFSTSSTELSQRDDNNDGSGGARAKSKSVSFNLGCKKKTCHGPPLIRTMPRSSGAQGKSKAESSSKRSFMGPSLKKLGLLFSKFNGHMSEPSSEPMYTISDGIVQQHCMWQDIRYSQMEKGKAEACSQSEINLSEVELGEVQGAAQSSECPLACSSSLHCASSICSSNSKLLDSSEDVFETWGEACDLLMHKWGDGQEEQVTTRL
How it was run: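 HEK-293 cells expressing the human channel, loaded with 4 µM Fluo-4/AM for 60 min at 37 °C, then stimulated with Englerin A (0.3nM final) and read for 600 s.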

hERG channel = biological target: T2, hERG channel (Homo sapiens, UniProt Q12809); experiment: hERG channel inhibition assay (Qpatch whole-cell recording, CHO cells expressing hERG); assay type: cell-based; conditions: Table 3; highest test concentration 40 µM; read-out: inhibitory activity IC50 hERG
T2 construct: expressed in transfected cells; host or cells: CHO
T2 sequence (Q12809 whole entry): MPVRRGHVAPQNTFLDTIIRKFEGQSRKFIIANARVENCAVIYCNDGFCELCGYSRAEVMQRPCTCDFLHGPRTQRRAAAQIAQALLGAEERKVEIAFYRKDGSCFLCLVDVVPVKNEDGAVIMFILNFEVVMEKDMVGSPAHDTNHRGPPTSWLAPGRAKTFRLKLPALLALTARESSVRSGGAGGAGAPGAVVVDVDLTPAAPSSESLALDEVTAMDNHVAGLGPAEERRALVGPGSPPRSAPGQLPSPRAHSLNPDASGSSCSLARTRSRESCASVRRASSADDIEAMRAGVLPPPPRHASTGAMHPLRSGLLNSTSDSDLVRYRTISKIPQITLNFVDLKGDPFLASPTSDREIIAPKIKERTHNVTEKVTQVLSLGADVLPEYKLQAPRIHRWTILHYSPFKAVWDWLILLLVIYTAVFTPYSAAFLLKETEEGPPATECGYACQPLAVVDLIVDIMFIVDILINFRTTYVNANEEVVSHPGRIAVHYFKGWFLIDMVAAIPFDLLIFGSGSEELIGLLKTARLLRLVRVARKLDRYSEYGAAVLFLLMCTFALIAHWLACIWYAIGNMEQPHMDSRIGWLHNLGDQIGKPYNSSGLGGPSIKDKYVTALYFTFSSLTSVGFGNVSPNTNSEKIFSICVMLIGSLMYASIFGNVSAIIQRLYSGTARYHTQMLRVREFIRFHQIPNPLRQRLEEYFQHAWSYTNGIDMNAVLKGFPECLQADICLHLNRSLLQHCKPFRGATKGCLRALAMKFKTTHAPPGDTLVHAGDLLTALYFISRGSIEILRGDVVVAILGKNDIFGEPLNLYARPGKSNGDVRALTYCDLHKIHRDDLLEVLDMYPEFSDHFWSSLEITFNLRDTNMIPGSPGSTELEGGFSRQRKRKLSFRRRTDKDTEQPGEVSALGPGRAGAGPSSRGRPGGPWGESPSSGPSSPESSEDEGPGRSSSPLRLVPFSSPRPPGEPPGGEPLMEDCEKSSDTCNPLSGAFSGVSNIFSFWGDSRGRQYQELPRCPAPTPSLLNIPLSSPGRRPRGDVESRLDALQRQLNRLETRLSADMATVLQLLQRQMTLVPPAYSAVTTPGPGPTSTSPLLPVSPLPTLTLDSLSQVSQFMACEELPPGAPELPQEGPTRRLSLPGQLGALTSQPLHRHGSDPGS
Description: (§2) CHO cells expressing hERG protein were cultured in 175cm^2 culture flasks. When the cell density grew to 60-80%, the culture medium was removed, and the cells were washed with 7mL PBS, and then 3mL Detachin was added for digestion. After digestion was complete, 7mL culture medium was added for neutralization, and then centrifuged, the supernatant was aspirated, and 5mL culture medium was added for resuspending to ensure that the cell density was 2-5×10^6/mL.
(§3) The single-cell high-impedance sealing and whole-cell pattern formation process were all automatically completed by the Qpatch instrument. After obtaining the whole-cell recording mode, the cell was clamped at -80 mV. […] This voltage stimulus was applied every 15 seconds. After recording for 2 minutes, the extracellular solution was recorded for 2 minutes, and then the drug administration process began. The compound concentration started from the lowest test concentration, and each test concentration was given for 2 minutes. After all concentrations were given continuously, the positive control compound 10 µM Cisapride was given. At least 3 cells (n≥3) were tested for each concentration.
(§4) The stock solution of compound was diluted with extracellular solution, 5 µL of 20 mM compound stock solution was added to 2495 µL of extracellular solution, 500 times diluted to 40 µM, and then 3 times serial dilution was performed in the extracellular solution containing 0.2% DMSO to obtain the final concentration to be tested.
(§5) (5) Data analysis: The experimental data were analyzed by XLFit software.

[5] = biological target: T3, hERG channel (relative to TRPC5) (Homo sapiens, UniProt Q12809); experiment: as above; assay type: cell-based; conditions: human, CHO cells expressing hERG; ratio of IC50 values
T3 construct: expressed in transfected cells; host or cells: CHO
T3 sequence (Q12809 whole entry): as above
Description: as §2, §3, §4, §5

concentration at 1 h ([1]; male, ICR, mouse, 1h) [ng/mL]	concentration at 4 h ([1]; male, ICR, mouse, 4h) [ng/mL]	IC50 (hTRPC5; Table 1, TRPC5 channels, HEK-293 cells expressing hTRPC5, read-out: FLIPR IC50) [nM]	IC50 (hTRPC5; Table 3, read-out: inhibitory activity IC50 TRPC5) [nM]	SMILES	drug concentration 1h ([1]; 1h) [ng/mL]	drug concentration 4h ([1]; 4h) [ng/mL]	number of marbles buried by mice (mice [2])	Stability Evaluation [3]	MF % ([3]; metabolic bioavailability) [%]	half-life ([3]; pH 7.4, 1µM compound, read-out: Half-life T1/2) [min]	immobility time of mice (mice [4])	IC50 (hERG channel) [µM]	selectivity ratio at 2 min [5]
–	–	–	–	Cn1c(=O)n(CCCO)c(=O)c2c1nc(Oc1cccc(Cl)c1)n2Cc1ccc(Cl)cc1 [HC-070, reference compound]	802 ± 164	398 ± 57	significantly reduced	Worse (MF%<30%, worse metabolic stability)	19.8	11.7	significantly reduced	–	–
1310 ± 45	1180 ± 163	6.87	6.9	Cn1c(=O)n(CCCO)c(=O)c2c1nc(C1(F)CCC(F)(F)CC1)n2Cc1ccc(C(F)(F)F)cc1 [Example E60, 1-(3-hydroxypropyl)-3-methyl-8-(1,4,4-trifluorocyclohexyl)-7-(4-(trifluoromethyl)benzyl)-3,7-dihydro-1H-purine-2,6-dione]	–	–	–	–	–	–	–	13.3	1940
